Experiments:
[1] = type: physicochemical; settings: pH 6
Description: Unfortunately, a suitable reversed-phase iTLC system for the ligands mcp-M-PSMA and mcp-D-PSMA was not found so far to determine the radiochemical yields. The resolution of our standard system was not efficient, most likely due to the bigger size of these molecules compared to the basic chelators, different protonation steps and possible conformational structures. […] Additionally, the stability of the ^225Ac-labeled conjugates in acetate buffer was investigated by HPLC analyses over a period of ten days.
Actinium-225 was purchased as a 0.1 M HCl solution from ITM Munich and used without purification. Stem solutions of all ligands were prepared in concentrations of 10^−2 M and diluted to 10^−6 M using 0.2 M ammonium acetate buffer at pH 6. For concentration-dependent labeling experiments, 10 µL of each ligand stem solution was incubated with 100 kBq of actinium-225 (1–5 µL) and the total volume was adjusted to 100 µL with 0.2 M ammonium acetate buffer at pH 6. For stability analyses, 50 µL of the buffer volume were replaced by 50 µL of 0.2 M ascorbic acid or 50 µL of 2,5-dihydroxy benzoic acid, respectively. […]
All samples were incubated for one hour at room temperature and analyzed afterward. […] Radioactivity was measured in Isomed 2100 dose calibrator. Low radioactivity count rates were determined in Isomed 2160 sodium iodide detector. […]

[2] = 225Ac-labeling of ligands in serial dilution, radiochemical yield and 7-day stability by TLC; type: physicochemical; settings: 100 kBq actinium-225, 0.2 M ammonium acetate buffer pH 6, after seven days; for RCY NP (7 d): normal phase TLC, silica, 50 mM EDTA pH 7; for RCY RP (7 d): reversed-phase TLC, Alugram RP-CN, acetonitrile/water 7/3
Protocol: To compare the efficiency of the synthesized chelators and their conjugates, 100 kBq of actinium-225 were incubated with each ligand at different concentrations (10^−5 M; 10^−6 M; 10^−7 M). The radiochemical yield was determined after one hour of reaction time using normal phase and reversed-phase TLC. Whereas one TLC-system was designed to move free actinium-225 with the solvent front, the other system was developed only to move the actinium-225 labeled complexes. Concentration-dependent radiochemical yields for all ligands and 7-day-longterm yields, which were calculated using both TLC systems, are presented in Table 1.
Actinium-225 was purchased as a 0.1 M HCl solution from ITM Munich and used without purification. Stem solutions of all ligands were prepared in concentrations of 10^−2 M and diluted to 10^−6 M using 0.2 M ammonium acetate buffer at pH 6. For concentration-dependent labeling experiments, 10 µL of each ligand stem solution was incubated with 100 kBq of actinium-225 (1–5 µL) and the total volume was adjusted to 100 µL with 0.2 M ammonium acetate buffer at pH 6. For stability analyses, 50 µL of the buffer volume were replaced by 50 µL of 0.2 M ascorbic acid or 50 µL of 2,5-dihydroxy benzoic acid, respectively. Labeling for cell-binding studies was performed using 1.5 MBq of actinium-225 and 4 nmol of the respective PSMA ligand in a total volume of 400 µL adjusted with 0.2 M ammonium acetate buffer at pH 6. Radiolabeling for cell survival studies and all in vivo experiments were performed using 1.5 MBq of actinium-225 and 3.3 nmol of the respective ligand.
All samples were incubated for one hour at room temperature and analyzed afterward. TLC analyses were carried out in two different systems, normal phase on silica plates in 50 mM EDTA solution (pH 7) and reversed-phase on Alugram RP-CN in acetonitrile/water (7/3). TLC plates were imaged using a phosphoimager Amersham Typhoon 5 Scanner (Cytiva Europe GmbH, Freiburg, Germany) after a decay time of at least 7 h. Analytical HPLC was performed using a Jasco HPLC system with RITA analyzer (Elysia-raytest GmbH, Straubenhardt, Germany) for gamma detection on a Phenomenex Phenyl-Hexyl column in water/acetonitrile (+ 0.1% TFA). Radioactivity was measured in Isomed 2100 dose calibrator. Low radioactivity count rates were determined in Isomed 2160 sodium iodide detector. More precise measurements and nuclide identification were carried out on an activity- and efficiency-calibrated HPGe detector CryoPulse 5 (Canberra).

logD7.4 determination = type: physicochemical; settings: pH 7.4, 225Ac complex
LNCaP cells [3] = experiment: CyQUANT direct cell proliferation assay; type: cell-based, human; settings: highest applied dose, 4 h of exposure, cell number 24 h after treatment by DNA staining
Protocol: The treatment response on cellular proliferation was assessed using the CyQUANT direct cell proliferation assay (Thermo Fisher Scientific, Waltham, MA, USA). For this purpose, LNCaP cells were plated in black 96 well cell culture microplates (Greiner Bio-One GmbH, Frickenhausen, Germany) at a density of 2 × 10^4 cells/0.05 mL/well. […] After 1 or 4 h of incubation, the cell culture media was removed and fresh media was added to each well. Cell numbers were subsequently determined 24 h later as per the manufacturer’s protocol. The fluorescence intensity was measured with the Varioskan Flash microplate reader (Thermo Fisher Scientific, Waltham, MA, USA).

LNCaP cells [4] = experiment: Colony formation assay; type: cell-based, human; settings: for Percentage amount of colonies referred to the non-radioactive control: 8 days colony growth
Protocol: LNCaP cells were plated in 6-well cell culture microplates (Greiner Bio-One GmbH, Frickenhausen, Germany) at a density of 6 × 10^3 cells/2 mL/well. […] After 1 or 4 h of incubation, the cell culture media was removed and fresh media was added to each well. Plates were then incubated at 37 °C for 8 days and re-fed every 3 to 4 days. […] The plates were scanned with an Amersham Typhoon 5 Scanner (Cytiva Europe GmbH, Freiburg, Germany) and the colonies were counted using the Image-Quant TL software (Version 8.1, Cytiva Europe GmbH, Freiburg, Germany).

LNCaP tumor-bearing mice = experiment: Biodistribution in LNCaP tumor-bearing SCID mice; type: in vivo, mouse
Description: The SCID male mice (ENVIGO, Indianapolis, IN, USA) 6–8 weeks old were subcutaneously injected into the right flank with 10 × 10^6 LNCaP cells (ATCC, Manassas, VA, USA) mixed with Matrigel Matrix (Corning, Corning, NY, USA) at a 1:1 ratio. The tumor growth was continuously monitored by caliper-based measurements. When the tumor volume reached 200–300 mm^3 (i.e., 5–6 weeks after the inoculation of cells), the mice were used for biodistribution studies. The experimental animals were housed in a specific-pathogen-free animal facility. All experiments with animals were performed in accordance with appropriate legal norms (Czech Law No. 246/1992) and with the approval of the Ministry of Education, Youth and Sports (MSMT-35035/2019-3) and approval of the Ethical Committee of Faculty of Medicine and Dentistry, Palacky University in Olomouc. The number of animals was reduced as much as possible (n = 4 per group and time point) for all in vivo experiments.
For biodistribution studies, the radiotracers were diluted with saline. The prepared radiotracers were applied retro-orbitally (r.o.) to the experimental animals at a dose of 50 kBq per mouse corresponding to 10 pmol of the peptide. The tracer injection was carried out under 2% isoflurane anesthesia (FORANE, Abbott Laboratories, Abbott Park, IL, USA) to minimize animal suffering and to prevent animal motion. The mice were sacrificed by cervical dislocation 10 min, 60 min and 24 h post-injection and organs of interest (blood, spleen, pancreas, stomach, intestine, kidneys, liver, heart, lungs, muscle, bone and tumor) were collected. The samples were weighed and the activity was measured on an automatic gamma counter. The radiotracer accumulation was expressed as a percentage of injected dose per gram (%ID/g) of the corresponding organ.

[5] = 1 h incubation time, 0.05 kBq/mL
[6] = 1 h incubation time, 0.5 kBq/mL
[7] = 4 h incubation time, 0.05 kBq/mL
[8] = 4 h incubation time, 0.5 kBq/mL
[9] = LNCaP tumor-bearing SCID mice, 24 h p.i.

## O=C(O)CC[C@H](NC(=O)N[C@H](CCCCNC(=O)[C@@H](Cc1ccc2ccccc2c1)NC(=O)C1CCC(CNC(=O)CCCCn2cc(COc3cc(CN4CCOCCOCCN(Cc5cccc(C(=O)O)n5)CCOCCOCC4)nc(C(=O)O)c3)nn2)CC1)C(=O)O)C(=O)O (mixture of isomers) [mcp-M-PSMA, (3RS,10RS,14S)-1-((1s,4S)-4-((5-(4-(((2-Carboxy-6-((16-((6-carboxypyridin-2-yl)methyl)-1,4,10,13-tetraoxa-7,16-diazacyclooctadecan-7-yl)methyl)pyridin-4-yl)oxy)methyl)-1H-1,2,3-triazol-1-yl)pentanamido)methyl)cyclohexyl)-3-(naphthalen-2-ylmethyl)-1,4,12-trioxo-2,5,11,13-tetraazahexadecane-10,14,16-tricarboxylic acid]
[1]
  stable in acetate buffer: at least 48 h

## O=C([O-])c1cccc(CN2CCOCCOCCN(Cc3cccc(C(=O)[O-])n3)CCOCCOCC2)n1.[225Ac+3] [[^225Ac]Ac-macropa, reference compound]
[2]; ligand 10^−5 M
  RCY NP (7 d): 99%
  RCY RP (7 d): 99%
[2]; ligand 10^−6 M
  RCY NP (7 d): 99%
  RCY RP (7 d): 99%
[2]; ligand 10^−7 M
  RCY NP (7 d): 99%
  RCY RP (7 d): 99%

## O=C(O)CC[C@H](NC(=O)N[C@@H](CCCCNC(=O)[C@H](Cc1ccc2ccccc2c1)NC(=O)[C@H]1CC[C@H](CNC(=O)CCCCn2cc(COc3cc(CN4CCOCCOCCN(Cc5cc(OCc6cn(CCCCC(=O)NC[C@H]7CC[C@H](C(=O)N[C@@H](Cc8ccc9ccccc9c8)C(=O)NCCCC[C@H](NC(=O)N[C@@H](CCC(=O)O)C(=O)O)C(=O)O)CC7)nn6)cc(C(=O)O)n5)CCOCCOCC4)nc(C(=O)O)c3)nn2)CC1)C(=O)O)C(=O)O [[^225Ac]Ac-mcp-D-PSMA, metal not drawn]
[2]; ligand 10^−5 M
  RCY NP (7 d): 99%
[2]; ligand 10^−6 M
  RCY NP (7 d): 99%
[2]; ligand 10^−7 M
  RCY NP (7 d): 95%
logD7.4 determination
  logD7.4: −2.5 ± 0.1
LNCaP cells [3]
  decrease of relative cell number: approximately one third
LNCaP cells [4]; 5 and 50 kBq/mL, 4 h
  inhibition of colony formation: ~100%
LNCaP cells [4]; [5]
  Percentage amount of colonies referred to the non-radioactive control: 75.0%
LNCaP cells [4]; [6]
  Percentage amount of colonies referred to the non-radioactive control: 3.8%
LNCaP cells [4]; 1 h incubation time, 5 kBq/mL
  Percentage amount of colonies referred to the non-radioactive control: 3.1%
LNCaP cells [4]; 1 h incubation time, 50 kBq/mL
  Percentage amount of colonies referred to the non-radioactive control: 0.8%
LNCaP cells [4]; [7]
  Percentage amount of colonies referred to the non-radioactive control: 49.1%
LNCaP cells [4]; [8]
  Percentage amount of colonies referred to the non-radioactive control: 6.2%
LNCaP cells [4]; 4 h incubation time, 5 kBq/mL
  Percentage amount of colonies referred to the non-radioactive control: 0.5%
LNCaP cells [4]; 4 h incubation time, 50 kBq/mL
  Percentage amount of colonies referred to the non-radioactive control: 0.4%
LNCaP tumor-bearing mice; mouse, in vivo
  Tumor-to-blood ratio: 158.11
  tumor-to-muscle ratio: 275.77

## C#CCOc1cc(CN2CCOCCOCCN(Cc3cc(OCC#C)cc(C(=O)[O-])n3)CCOCCOCC2)nc(C(=O)[O-])c1.[225Ac+3] [[^225Ac]Ac-mcp-D-click]
[2]; ligand 10^−5 M
  RCY NP (7 d): 99%
  RCY RP (7 d): 99%
[2]; ligand 10^−6 M
  RCY NP (7 d): 99%
  RCY RP (7 d): 94%
[2]; ligand 10^−7 M
  RCY NP (7 d): 50%
  RCY RP (7 d): 40%

## O=C(O)CCCCn1cc(COc2cc(CN3CCOCCOCCN(Cc4cccc(C(=O)[O-])n4)CCOCCOCC3)nc(C(=O)[O-])c2)nn1.[225Ac+3] [[^225Ac]Ac-mcp-M-COOH]
[2]; ligand 10^−5 M
  RCY NP (7 d): 99%
  RCY RP (7 d): 99%
[2]; ligand 10^−6 M
  RCY NP (7 d): 99%
  RCY RP (7 d): 99%
[2]; ligand 10^−7 M
  RCY NP (7 d): 99%
  RCY RP (7 d): 96%

## O=C(O)CC[C@H](NC(=O)N[C@@H](CCCCNC(=O)[C@H](Cc1ccc2ccccc2c1)NC(=O)[C@H]1CC[C@H](CNC(=O)CCCCn2cc(COc3cc(CN4CCOCCOCCN(Cc5cccc(C(=O)O)n5)CCOCCOCC4)nc(C(=O)O)c3)nn2)CC1)C(=O)O)C(=O)O [[^225Ac]Ac-mcp-M-PSMA, metal not drawn]
[2]; ligand 10^−5 M
  RCY NP (7 d): 99%
[2]; ligand 10^−6 M
  RCY NP (7 d): 99%
[2]; ligand 10^−7 M
  RCY NP (7 d): 99%
logD7.4 determination
  logD7.4: −2.8 ± 0.1
LNCaP cells [3]
  decrease of relative cell number: approximately one third
LNCaP cells [4]; [5]
  Percentage amount of colonies referred to the non-radioactive control: 107.2%
LNCaP cells [4]; [6]
  Percentage amount of colonies referred to the non-radioactive control: 91.8%
LNCaP cells [4]; 1 h incubation time, 5 kBq/mL
  Percentage amount of colonies referred to the non-radioactive control: 19.4%
LNCaP cells [4]; 1 h incubation time, 50 kBq/mL
  Percentage amount of colonies referred to the non-radioactive control: 1.4%
LNCaP cells [4]; [7]
  Percentage amount of colonies referred to the non-radioactive control: 116.8%
LNCaP cells [4]; [8]
  Percentage amount of colonies referred to the non-radioactive control: 57.2%
LNCaP cells [4]; 4 h incubation time, 5 kBq/mL
  Percentage amount of colonies referred to the non-radioactive control: 5.3%
LNCaP cells [4]; 4 h incubation time, 50 kBq/mL
  Percentage amount of colonies referred to the non-radioactive control: 0.9%
LNCaP tumor-bearing mice; [9]
  Tumor-to-blood ratio: 188.42
  tumor-to-muscle ratio: 310.82

## C#CCOc1cc(CN2CCOCCOCCN(Cc3cccc(C(=O)[O-])n3)CCOCCOCC2)nc(C(=O)[O-])c1.[225Ac+3] [[^225Ac]Ac-mcp-M-click]
[2]; ligand 10^−5 M
  RCY NP (7 d): 99%
  RCY RP (7 d): 99%
[2]; ligand 10^−6 M
  RCY NP (7 d): 99%
  RCY RP (7 d): 99%
[2]; ligand 10^−7 M
  RCY NP (7 d): 58%
  RCY RP (7 d): 55%
